Usually Ki stands for a measure of affinity in units of concentration, obtained from inhibition or displacement.

The values below come from publication PMC2845915 (Bioconjugate chemistry, 2010).

For one assay, the target named is human A2AAR (Homo sapiens, UniProt P29274). Particulars: read-out: Affinity (Ki) A2 (A2A), [3H]CGS21680, HEK293, ref Tosh et al. ([15], [21]) and Melman et al. ([14]); cited from earlier work.
For another assay, the target named is T1, human A1AR (Homo sapiens, UniProt P30542).
T1 sequence (P30542 1-326): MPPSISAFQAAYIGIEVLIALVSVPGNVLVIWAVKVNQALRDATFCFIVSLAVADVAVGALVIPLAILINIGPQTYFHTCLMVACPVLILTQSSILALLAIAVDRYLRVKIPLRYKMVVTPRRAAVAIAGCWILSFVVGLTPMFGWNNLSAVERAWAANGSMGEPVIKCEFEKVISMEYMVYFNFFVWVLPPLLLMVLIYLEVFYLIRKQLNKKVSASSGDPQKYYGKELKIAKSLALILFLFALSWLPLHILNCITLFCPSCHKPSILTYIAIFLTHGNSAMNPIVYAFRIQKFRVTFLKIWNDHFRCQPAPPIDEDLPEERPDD
Particulars: at 10 μM, ref Tosh et al. ([15], [21]) and Melman et al. ([14]); cited from earlier work.

For assay [1], the target named is T2, human A3AR (Homo sapiens, UniProt P0DMS8).
T2 sequence (P0DMS8 1-318): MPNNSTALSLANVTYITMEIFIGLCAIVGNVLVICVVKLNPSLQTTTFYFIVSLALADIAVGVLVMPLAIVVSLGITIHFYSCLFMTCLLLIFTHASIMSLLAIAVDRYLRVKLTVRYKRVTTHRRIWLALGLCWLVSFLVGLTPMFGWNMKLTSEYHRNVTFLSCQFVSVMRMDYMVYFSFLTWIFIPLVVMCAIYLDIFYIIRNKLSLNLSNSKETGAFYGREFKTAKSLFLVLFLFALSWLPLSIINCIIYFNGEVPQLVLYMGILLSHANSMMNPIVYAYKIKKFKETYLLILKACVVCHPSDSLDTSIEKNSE
As to conditions: cited from earlier work.

For assay [2], the target named is T2, human A3AR. As to the kind of experiment: Radioligand binding at human A3AR. As to conditions: human ARs.
A further assay concerns the target T3, human P2Y14 receptor (Homo sapiens, UniProt Q15391).
T3 sequence (Q15391 1-338): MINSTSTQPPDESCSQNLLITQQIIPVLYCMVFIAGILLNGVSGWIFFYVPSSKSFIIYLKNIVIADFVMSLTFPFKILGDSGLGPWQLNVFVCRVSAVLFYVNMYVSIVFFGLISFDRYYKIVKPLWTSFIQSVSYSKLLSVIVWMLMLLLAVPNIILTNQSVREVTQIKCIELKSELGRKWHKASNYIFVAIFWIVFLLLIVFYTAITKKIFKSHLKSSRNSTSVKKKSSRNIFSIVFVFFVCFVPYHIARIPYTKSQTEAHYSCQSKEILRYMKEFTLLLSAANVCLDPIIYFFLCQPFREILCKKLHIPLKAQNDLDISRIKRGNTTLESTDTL
Particulars: read-out: Potency at the P2Y14 receptor in the same assay; C6 cells expressing the human P2Y14 receptor; cited from earlier work.

Sequence of human A2AAR (P29274 whole entry): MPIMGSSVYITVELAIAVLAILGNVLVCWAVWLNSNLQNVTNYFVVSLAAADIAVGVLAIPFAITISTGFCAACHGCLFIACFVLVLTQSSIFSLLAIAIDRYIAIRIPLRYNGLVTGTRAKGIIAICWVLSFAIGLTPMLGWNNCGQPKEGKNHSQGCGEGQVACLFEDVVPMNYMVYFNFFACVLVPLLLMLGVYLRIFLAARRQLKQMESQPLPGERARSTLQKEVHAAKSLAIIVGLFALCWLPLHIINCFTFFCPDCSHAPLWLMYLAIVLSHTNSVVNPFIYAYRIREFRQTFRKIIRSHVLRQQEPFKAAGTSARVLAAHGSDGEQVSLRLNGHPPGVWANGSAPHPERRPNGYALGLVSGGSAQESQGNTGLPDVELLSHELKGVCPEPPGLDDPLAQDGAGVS

Take `CNC(=O)[C@@]12C[C@@H]1[C@@H](n1cnc3c(NCc4cccc(Cl)c4)nc(Cl)nc31)[C@H](O)[C@@H]2O` [Compound 2]: the Ki on human A2AAR was 2300 ± 100 nM.
Consider `C#CCCCCC#Cc1nc(NCc2cccc(Cl)c2)c2ncn([C@H]3[C@H](O)[C@H](O)[C@]4(C(=O)NC)C[C@H]34)c2n1` [Compound 3a], for which the “% inhibition of radioligand binding A1” value at human A1AR was “(31±2%) at 10 μM”.
Turning to `CNC(=O)[C@@]12C[C@@H]1[C@@H](n1cnc3c(NCc4cccc(Cl)c4)nc(C#CCCCCc4cn(CCNC(C)=O)nn4)nc31)[C@H](O)[C@@H]2O` [Compound 4a], the “Selectivity for the A3AR” value at human A3AR [1] was “at least 100 fold”. The Ki at human A2AAR is 2440 ± 320 nM. At human A3AR [2], the “Selectivity for the A3AR in comparison to the A1AR” value is recorded as above 500 fold. Further, the “% inhibition of radioligand binding A1” value on human A1AR was “(12±4%) at 10 μM”.
As to `O=C(O)[C@H]1O[C@H](OP(=O)(O)OP(=O)(O)OC[C@H]2O[C@@H](n3ccc(=O)[nH]c3=O)[C@H](O)[C@@H]2O)[C@H](O)[C@@H](O)[C@@H]1O` [UDPGA, uridine-5′-diphosphoglucuronic acid], the EC50 at human P2Y14 receptor was 200 to 300 nM.
